Data set [1] has as its system thrombus induced in the jugular vein. Briefly: Rabbit thrombus model biodistribution and gamma camera imaging. As to conditions: for localization to / uptake in the clot in gamma camera images (in words): thrombus in left jugular vein, Tc-99m labeled peptide (FIGS. 3-5). The format is in vivo. On the procedure:
Two kg or larger white New Zealand rabbits were anesthetised and a thrombus induced in the jugular vein as follows: the jugular vein was surgically exposed, side branches tied off and a segment of about 1 inch in length was clamped off. A silk thread was introduced through the segment with both ends external. Ten units of bovine thrombin in Tris-buffered saline (TBS) pH 7.5 were added by syringe. After 10 minutes, the clamp was removed and the wound closed. After 1 hour, approximately 50 μg of a MRU conjugate which is a fusion peptide labeled with Tc-99m as described in Section 8.1, supra, was injected via the contralateral ear vein. I-125 labeled fibrinogen was subsequently injected as a control in order to assess normal blood clearance and clot localization. […] The animals were then sacrificed and the amount of Tc-99m and I-125 in various organs was assessed. A Tc-99m labeled nonspecific peptide analogue containing the RYYD sequence served as a control.

In data set [2] the target is T1, activated platelet fibrinogen receptor (Homo sapiens, UniProt P05106+P08514).
T1 construct: Platelets were isolated by placing 7 ml of platelet-rich-plasma onto a 50 ml column of Sepharose 2-B; endogenous in cells
T1 sequence (P08514 32-887 limits assumed): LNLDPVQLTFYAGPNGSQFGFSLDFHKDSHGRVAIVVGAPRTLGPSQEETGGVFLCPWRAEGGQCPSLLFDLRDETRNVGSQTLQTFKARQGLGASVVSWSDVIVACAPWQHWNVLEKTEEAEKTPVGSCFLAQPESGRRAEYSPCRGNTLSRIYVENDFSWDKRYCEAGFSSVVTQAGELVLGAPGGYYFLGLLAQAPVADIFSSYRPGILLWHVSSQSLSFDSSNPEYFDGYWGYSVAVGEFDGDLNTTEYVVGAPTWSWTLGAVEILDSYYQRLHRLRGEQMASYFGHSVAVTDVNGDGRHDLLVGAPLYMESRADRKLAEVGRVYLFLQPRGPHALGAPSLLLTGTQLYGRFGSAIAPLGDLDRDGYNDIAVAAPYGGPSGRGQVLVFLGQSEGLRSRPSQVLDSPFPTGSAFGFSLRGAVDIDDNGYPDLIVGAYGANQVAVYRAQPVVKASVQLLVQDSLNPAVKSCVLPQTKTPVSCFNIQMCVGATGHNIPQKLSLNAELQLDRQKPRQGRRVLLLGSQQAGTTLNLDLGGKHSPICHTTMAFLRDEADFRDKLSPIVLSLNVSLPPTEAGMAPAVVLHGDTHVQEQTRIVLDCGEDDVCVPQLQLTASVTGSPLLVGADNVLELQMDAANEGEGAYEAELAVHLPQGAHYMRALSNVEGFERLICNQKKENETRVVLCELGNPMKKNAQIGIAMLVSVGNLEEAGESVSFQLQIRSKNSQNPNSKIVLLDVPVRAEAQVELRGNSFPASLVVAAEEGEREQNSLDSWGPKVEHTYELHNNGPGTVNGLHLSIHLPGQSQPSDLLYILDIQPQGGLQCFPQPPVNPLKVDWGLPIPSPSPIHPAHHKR
T1 sequence (P08514 891-1039 partner limits assumed): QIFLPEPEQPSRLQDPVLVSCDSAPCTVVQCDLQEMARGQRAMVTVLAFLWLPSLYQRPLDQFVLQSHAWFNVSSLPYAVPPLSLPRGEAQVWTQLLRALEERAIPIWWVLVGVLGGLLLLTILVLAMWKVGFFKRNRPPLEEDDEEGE
T1 sequence (P05106 27-788): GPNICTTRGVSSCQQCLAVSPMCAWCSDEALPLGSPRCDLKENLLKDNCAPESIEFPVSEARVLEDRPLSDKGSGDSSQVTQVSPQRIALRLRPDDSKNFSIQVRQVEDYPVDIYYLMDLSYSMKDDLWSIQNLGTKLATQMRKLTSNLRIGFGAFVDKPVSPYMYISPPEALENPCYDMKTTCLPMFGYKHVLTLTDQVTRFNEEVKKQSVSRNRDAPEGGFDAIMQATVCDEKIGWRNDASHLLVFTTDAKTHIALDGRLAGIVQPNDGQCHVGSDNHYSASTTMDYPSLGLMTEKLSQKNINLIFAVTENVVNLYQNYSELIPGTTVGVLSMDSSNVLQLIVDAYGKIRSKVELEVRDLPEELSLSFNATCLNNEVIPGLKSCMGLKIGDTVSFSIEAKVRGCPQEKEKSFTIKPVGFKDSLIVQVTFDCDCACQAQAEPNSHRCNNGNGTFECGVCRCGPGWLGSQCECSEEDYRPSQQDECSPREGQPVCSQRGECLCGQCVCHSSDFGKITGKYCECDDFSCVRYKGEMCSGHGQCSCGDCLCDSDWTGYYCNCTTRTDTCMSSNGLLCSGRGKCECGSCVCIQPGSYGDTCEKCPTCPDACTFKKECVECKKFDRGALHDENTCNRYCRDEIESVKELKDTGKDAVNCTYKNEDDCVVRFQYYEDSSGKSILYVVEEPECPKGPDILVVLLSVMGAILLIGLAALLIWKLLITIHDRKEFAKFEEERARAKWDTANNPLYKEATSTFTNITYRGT
Description: Inhibition of binding of 125-I PAC-1 antibody to activated platelets. As to conditions: inhibition of 125-I PAC-1 binding to platelets activated with PMA or ADP, 37 degrees C, 1 hr; read-out: IC-50 (μM) Binding. Here is the method: The ability of the fusion peptides and of peptides comprising the binding domain of the peptides, specific for the activated platelet fibrinogen receptor, to inhibit the binding of PAC-1 antibody was assessed as follows:
Platelets were isolated by placing 7 ml of platelet-rich-plasma onto a 50 ml column of Sepharose 2-B equilibrated in Walshes 1% BSA buffer (1.0 g NaCl, 0.2 g KCl, 0.2 g MgCl2, 0.45 g NaH 0.9 g HEPES, 1.0 g BSA and 1.0 g dextrose in sufficient water to make exactly 1 liter), pH 7.45. The cloudiest tubes were pooled to obtain 14 ml of platelets (approximately 300,000/μl). The peptide in Walshes 1% BSA buffer and 20,000 CpM of 125-I-pAC 1 (5 μCi/μg) was added to one ml of this in a microfuge tube. Platelets were next activated with 0.1 μM phorbol myristate acetate or 10 μM ADP at 37 degrees C. After 1 hr, platelets were pelleted at top speed in a horizontal microfuge, washed gently, and the tube bottom removed with dog nail clippers and it, supernatant and wash were counted in a […]. […] Varied levels of peptide were examined and IC-50 was determined from a graph of % inhibition versus peptide concentration.

The format of data set [3] is in vitro ADME, human. As to conditions: 37° C. Here is the method: A representative peptide designated "Pac-2" of the sequence: […] was labeled with 125-Iodine via standard techniques (Iodobead) (see Markwell, 1982, Anal. Biochem. 125: 427-32). Stability of the labeled peptide, having either an unblocked or blocked amino terminal end, to proteolytic enzymes in plasma was assayed as follows: Labeled peptides were incubated in fresh citrated human platelet-poor plasma in sealed tubes at 37° C. Aliguots were removed at various times and assayed using reverse phase HPLC. Degradation was calculated by loss of the original radioactive peak on a reverse phase HPLC C-6 column using 0-60% acetonitrile in 20 mM Na phosphate, pH, 6.0. Inhibitors of proteolytic enzymes in plasma were used to identify responsible enzyme classes and included: EDTA (metalloenzymes), benzamidine (serine endoproteases), bestatin (aminopeptidases) and leupeptin ([…]).

Data set [4] has as its target platelet aggregation (Homo sapiens, UniProt P05106+P08514). Description: Inhibition of platelet aggregation (Payton Aggregometer, ADP). The format is cell-based. Here is the method:
The ability of the fusion peptides and of peptides comprising the binding domain of the fusion peptides to inhibit platelet aggregation was assessed as follows:
[…], human plasma was prepared by centrifugation of citrated human plasma at 900 rpm, Sorvall Rc-3, for 20 minutes at room temperature. 0.5 mL of the platelet solution was placed in the cuvette of a Payton Aggregometer, followed by 50 μL of a solution containing various concentrations, up to 200 μM, of the peptide being assayed. After 1 minute, 5 μL of 10 mM ADP in water was added. The aggregation rate was assessed by a change in the slope of the absorbance curve.

Read-outs that look alike come from different tables or passages of the source. Residues, ends and D or L forms follow the SMILES beside them. No end group written: not given here.

This note sets out measurements from US5196510A, “Molecular recognition units” (Cytogen Corporation, priority 1990, dated 1993).

Sequence of platelet aggregation (P08514 32-1039): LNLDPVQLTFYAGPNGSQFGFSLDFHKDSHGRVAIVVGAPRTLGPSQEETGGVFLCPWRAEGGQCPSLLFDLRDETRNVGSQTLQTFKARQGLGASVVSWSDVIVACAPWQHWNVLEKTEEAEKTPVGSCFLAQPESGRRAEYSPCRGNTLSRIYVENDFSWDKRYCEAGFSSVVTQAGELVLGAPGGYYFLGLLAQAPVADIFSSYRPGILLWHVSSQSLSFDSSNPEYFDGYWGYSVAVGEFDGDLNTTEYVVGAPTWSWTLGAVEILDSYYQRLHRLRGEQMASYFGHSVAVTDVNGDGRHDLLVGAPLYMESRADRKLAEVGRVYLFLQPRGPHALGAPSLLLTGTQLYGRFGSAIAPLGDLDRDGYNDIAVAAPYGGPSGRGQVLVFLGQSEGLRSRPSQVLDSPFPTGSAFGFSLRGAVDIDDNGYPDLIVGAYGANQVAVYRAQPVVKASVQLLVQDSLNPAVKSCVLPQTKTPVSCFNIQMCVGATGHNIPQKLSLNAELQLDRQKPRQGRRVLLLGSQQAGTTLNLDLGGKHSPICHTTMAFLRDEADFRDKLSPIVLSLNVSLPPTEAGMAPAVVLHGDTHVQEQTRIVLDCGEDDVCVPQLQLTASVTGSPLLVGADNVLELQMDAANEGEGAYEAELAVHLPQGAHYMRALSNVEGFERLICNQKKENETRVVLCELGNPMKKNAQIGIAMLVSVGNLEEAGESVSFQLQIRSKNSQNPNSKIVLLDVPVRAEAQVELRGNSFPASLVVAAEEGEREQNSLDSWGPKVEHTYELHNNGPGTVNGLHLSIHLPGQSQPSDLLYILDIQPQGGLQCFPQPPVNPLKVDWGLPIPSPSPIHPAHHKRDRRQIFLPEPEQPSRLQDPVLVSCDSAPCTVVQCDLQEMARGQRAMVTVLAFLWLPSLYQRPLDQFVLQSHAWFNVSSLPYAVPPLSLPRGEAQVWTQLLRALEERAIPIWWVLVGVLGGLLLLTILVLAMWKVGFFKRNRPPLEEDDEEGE
Sequence of platelet aggregation (P05106 27-788): as the sequence (P05106 27-788) above

Turning to `CC(=O)N[C@@H](CO)C(=O)N[C@@H](Cc1ccc(O)cc1)C(=O)NCC(=O)N[C@@H](CCCNC(=N)N)C(=O)NCC(=O)N[C@@H](CC(=O)O)C(=O)N[C@H](C(=O)N[C@@H](CCCNC(=N)N)C(=O)NCC(=O)N[C@@H](CC(=O)O)C(=O)N[C@@H](Cc1ccccc1)C(=O)N[C@@H](CCCCN)C(=O)N[C@@H](CS)C(=O)N[C@H](C(=O)N[C@@H](CS)C(=O)N[C@@H](CS)C(=O)N[C@@H](C)C(N)=O)[C@@H](C)O)C(C)C` [PAC-8] (Ac-SYGRGDVRGDFKCTCCA-NH2), the “time after injection at which the clot is imaged” value in data set [1] (gamma camera) was not above 18 min. In addition, the “persistence of the clot image” value in data set [1] (gamma camera (FIG. 3D)) was not below 4 h. Besides, the “localization to / uptake in the clot in gamma camera images (in words)” value (“localization to / uptake in the clot” for short) in data set [1] was “localizes to and images the clot”.
As for `CC(=O)N[C@@H](CCCCN)C(=O)N[C@@H](CS)C(=O)N[C@H](C(=O)N[C@@H](CS)C(=O)N[C@@H](CS)C(=O)N[C@@H](C)C(=O)N1CCC[C@H]1C(=O)N[C@@H](CO)C(=O)N[C@@H](Cc1ccc(O)cc1)C(=O)N[C@@H](Cc1ccc(O)cc1)C(=O)N[C@@H](CCCNC(=N)N)C(=O)NCC(=O)N[C@@H](CC(=O)O)C(=O)NCC(=O)N[C@@H](C)C(=O)N1CCC[C@H]1C(=O)N[C@@H](CO)C(=O)N[C@@H](Cc1ccc(O)cc1)C(=O)N[C@@H](Cc1ccc(O)cc1)C(=O)N[C@@H](CCCNC(=N)N)C(=O)NCC(=O)N[C@@H](CC(=O)O)C(=O)NCC(=O)N[C@@H](C)C(=O)N1CCC[C@H]1C(=O)N[C@@H](CO)C(=O)N[C@@H](Cc1ccc(O)cc1)C(=O)N[C@@H](Cc1ccc(O)cc1)C(=O)N[C@@H](CCCNC(=N)N)C(=O)NCC(=O)N[C@@H](CC(=O)O)C(=O)N[C@@H](C)C(N)=O)[C@@H](C)O` [PAC-15] (Ac-KCTCCAPSYYRGDGAPSYYRGDGAPSYYRGDA-NH2), the “localization to / uptake in the clot” value in data set [1] is “clearly localize and permit imaging of the clot”.
Same read-out and setting: to `CC(=O)N1CCC[C@H]1C(=O)N[C@@H](CO)C(=O)N[C@@H](Cc1ccc(O)cc1)C(=O)N[C@@H](Cc1ccc(O)cc1)C(=O)N[C@@H](CCCNC(=N)N)C(=O)NCC(=O)N[C@@H](CC(=O)O)C(=O)NCC(=O)N[C@@H](C)C(=O)N1CCC[C@H]1C(=O)N[C@@H](CO)C(=O)N[C@@H](Cc1ccc(O)cc1)C(=O)N[C@@H](Cc1ccc(O)cc1)C(=O)N[C@@H](CCCNC(=N)N)C(=O)NCC(=O)N[C@@H](CC(=O)O)C(=O)NCC(=O)N[C@@H](C)C(=O)N1CCC[C@H]1C(=O)N[C@@H](CO)C(=O)N[C@@H](Cc1ccc(O)cc1)C(=O)N[C@@H](Cc1ccc(O)cc1)C(=O)N[C@@H](CCCNC(=N)N)C(=O)NCC(=O)N[C@@H](CC(=O)O)C(=O)N[C@@H](C)C(=O)N[C@@H](CCCCN)C(=O)N[C@@H](CS)C(=O)N[C@H](C(=O)N[C@@H](CS)C(=O)N[C@@H](CS)C(=O)N[C@@H](C)C(N)=O)[C@@H](C)O` [PAC-16] (Ac-PSYYRGDGAPSYYRGDGAPSYYRGDAKCTCCA-NH2) belongs “clearly localize and permit imaging of the clot”.
ARRSPSYYRGDAGPYYAMDY: in data set [2], the IC50 was found to be 10 µM.
The same measure, in the same setting: to ARRSPSYYRYDAGPYYAMDY belongs 90 µM.
Consider acARRSPSYYRGDAGPYYAMDYKCTCCA-a [PAC-2], for which the “Half-Life” value turned out to be 8.5 min in data set [3] (inhibitor 1 mM Bestatin, human platelet-poor plasma) and 2.1 min in data set [3] (no inhibitor, 125-I labeled peptide in citrated human platelet-poor plasma).
In the case of acARRSPSYYRYYDAGPYYAMDYKCTCCA-a [PAC-3], the “localization to / uptake in the clot” value in data set [1] was “no uptake in the region of the clot”. Further, the “inhibition of platelet aggregation and/or PAC-1 binding (in words)” value in data set [4] was “lack of platelet inhibition”.
